Experimental data published in PMC12216609, “Inhibitors of eIF1A-ribosome interaction unveil uORF-dependent regulation of translation initiation and antitumor and antiviral effects” (The EMBO Journal, 2025).
pIC50: −log10 of the molar value. Where “and” joins values, the source holds several entries; their conditions need not be identical. Equal entries are not always repeated. Where two headings read alike, the source gives them in different places.

How the values were obtained:
eIF1A without NTT = molecular target: T1, eIF1A without NTT (Homo sapiens, UniProt P47813); assay: Fluorescence binding assay with NTT-truncated eIF1A; details: for fluorescence ratio, eIF1A Δ NTT: background-corrected, relative to DMSO or lowest 1Ai concentration, replicate columns; for pIC50: eIF1A Δ NTT, from the titration data, read-out: IC50 (eIF1A Δ NTT titration block); for IC50: summary table, fluorescence binding assay, read-out: IC50 concentration (µM), NTT truncation
T1 construct: His-bdSUMO (cleaved yes); made in house; host or cells: E. coli (BL-21)

eIF1A without CTT = molecular target: T2, eIF1A without CTT (Homo sapiens, UniProt P47813); format: binding; details: for fluorescence ratio, eIF1A Δ CTT: background-corrected, relative to DMSO or lowest 1Ai concentration, replicate columns; for pIC50: eIF1A Δ CTT, from the titration data, read-out: IC50 (eIF1A Δ CTT titration block); for IC50: read-out: IC50 concentration (µM), CTT truncation
T2 construct: His-bdSUMO (cleaved yes); made in house; host or cells: E. coli (BL-21)

RPS10 = molecular target: T3, RPS10 (Homo sapiens, UniProt P46783); format: binding; details: for RPS10 IC50: fluorescence binding
T3 construct: made in house; host or cells: E. coli BL-21

[1] = tested on: cap-proximal AUG GFP reporter in HEK293T cells; format: cell-based; details: GFP WB densitometry; 20 µM overnight; dmso 0.965946;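 note: ratio of upstream to downstream AUG initiation products on GFP Western blot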
[2] = summary table, fluorescence binding assay
[3] = 1Ai conc. 0.5 uM, listed as 5662

T2 sequence (P47813 1-114 limits assumed): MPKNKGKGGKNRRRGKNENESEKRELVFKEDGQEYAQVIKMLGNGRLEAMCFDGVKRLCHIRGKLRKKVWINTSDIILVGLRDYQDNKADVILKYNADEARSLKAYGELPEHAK
T1 sequence (P47813 31-144 limits assumed): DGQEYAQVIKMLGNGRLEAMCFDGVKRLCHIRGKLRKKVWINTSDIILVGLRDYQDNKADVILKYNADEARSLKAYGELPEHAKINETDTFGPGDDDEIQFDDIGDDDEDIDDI

| SMILES | fluorescence ratio, eIF1A Δ NTT (eIF1A without NTT; 1Ai conc. 0.25 uM) | fluorescence ratio, eIF1A Δ NTT (eIF1A without NTT; 1Ai conc. 0.5 uM) | fluorescence ratio, eIF1A Δ NTT (eIF1A without NTT; 1Ai conc. 1 uM) | fluorescence ratio, eIF1A Δ NTT (eIF1A without NTT; 1Ai conc. 2 uM) | fluorescence ratio, eIF1A Δ NTT (eIF1A without NTT; 1Ai conc. 4 uM) | fluorescence ratio, eIF1A Δ NTT (eIF1A without NTT; 1Ai conc. 8 uM) | fluorescence ratio, eIF1A Δ NTT (eIF1A without NTT; 1Ai conc. 16 uM) | fluorescence ratio, eIF1A Δ NTT (eIF1A without NTT; 1Ai conc. 32 uM) | fluorescence ratio, eIF1A Δ NTT (eIF1A without NTT; 1Ai conc. 64 uM) | fluorescence ratio, eIF1A Δ NTT (eIF1A without NTT; 1Ai conc. 256 uM) | fluorescence ratio, eIF1A Δ CTT (eIF1A without CTT; 1Ai conc. 0.25 uM) | fluorescence ratio, eIF1A Δ CTT (eIF1A without CTT; 1Ai conc. 1 uM) | fluorescence ratio, eIF1A Δ CTT (eIF1A without CTT; 1Ai conc. 2 uM) | fluorescence ratio, eIF1A Δ CTT (eIF1A without CTT; 1Ai conc. 4 uM) | fluorescence ratio, eIF1A Δ CTT (eIF1A without CTT; 1Ai conc. 8 uM) | fluorescence ratio, eIF1A Δ CTT (eIF1A without CTT; 1Ai conc. 16 uM) | fluorescence ratio, eIF1A Δ CTT (eIF1A without CTT; 1Ai conc. 32 uM) | fluorescence ratio, eIF1A Δ CTT (eIF1A without CTT; 1Ai conc. 64 uM) | fluorescence ratio, eIF1A Δ CTT (eIF1A without CTT; 1Ai conc. 256 uM) | RPS10 fluorescence ratio to control (RPS10; 1Ai conc. 0.25 uM) | other results |
| --- | --- | --- | --- | --- | --- | --- | --- | --- | --- | --- | --- | --- | --- | --- | --- | --- | --- | --- | --- | --- | --- |
| CN1CCN(S(=O)(=O)c2ccc(N3Cc4cc5c(cc4C4(CCCC4)C3)OCCO5)nc2)CC1 [1Ai-3564] | 1 | 1.007 | 0.9932 | 1.2 | 1.048 | 1.009 | 1.298 | 1.4 | 1.423 | 1.807 | 1.127 and 1.051 | 1.087 and 1.0877 | 1.109 and 1.056 | 1.011 and 1.035 | 0.8478 and 0.8594 | 0.8634 and 0.8337 | 0.9829 and 0.8523 | 1.0625 and 1.083 | 1.108 and 1.021 | 1 | pIC50 (eIF1A without NTT): 4.36; IC50 (eIF1A without NTT): 43.2 µM; binding to CTT-truncated eIF1A (eIF1A without CTT): compromised; fluorescence ratio, eIF1A Δ CTT (eIF1A without CTT; 1Ai conc. 0.5 uM): 1.14 and 1.091; CTT truncation IC50 (eIF1A without CTT; eIF1A without CTT): No binding; IC50 concentration (µM), CTT truncation (eIF1A without CTT; [2]): No binding; RPS10 fluorescence ratio to control (RPS10; 1Ai conc. 0.5 uM): 0.8515; RPS10 fluorescence ratio to control (RPS10; 1Ai conc. 1 uM): 0.9657; RPS10 fluorescence ratio to control (RPS10; 1Ai conc. 2 uM): 0.9853; RPS10 fluorescence ratio to control (RPS10; 1Ai conc. 4 uM): 0.8932; RPS10 fluorescence ratio to control (RPS10; 1Ai conc. 8 uM): 0.9434; RPS10 fluorescence ratio to control (RPS10; 1Ai conc. 16 uM): 0.942; RPS10 fluorescence ratio to control (RPS10; 1Ai conc. 32 uM): 1; RPS10 fluorescence ratio to control (RPS10; 1Ai conc. 64 uM): 1.142; RPS10 fluorescence ratio to control (RPS10; 1Ai conc. 256 uM): 1.206; RPS10 IC50 (RPS10): No binding; IC50 concentration (µM), RPS10 (RPS10; [2]): No binding; US/DS ratio, average [1]: 0.4649 |
| Cc1ccc(C(=O)c2cc(O)c(O)c([N+](=O)[O-])c2)cc1 [1Ai-5576] | 0.8023 and 0.892 | 0.7712 and 0.8267 | 0.7599 and 0.8722 | 0.7825 and 0.8608 | 0.6215 and 0.8636 | 0.5932 and 0.9091 | 0.5932 and 0.7358 | 0.5395 and 0.6733 | 0.7175 and 0.7159 | 0.4605 and 0.6165 | 0.7373 and 0.785 | 0.744 and 0.7009 | 0.6013 and 0.6558 | 0.5053 and 0.5218 | 0.4227 and 0.4252 | 0.332 and 0.3364 | 0.26 and 0.2352 | 0.208 and 0.1745 | 0.1973 and 0.1667 | 1.2176 | binding to NTT-truncated eIF1A (eIF1A without NTT): significantly decreased; fluorescence ratio, eIF1A Δ CTT (eIF1A without CTT; 1Ai conc. 0.5 uM): 0.8173 and 0.7741; pIC50 (eIF1A without CTT): 5.27; IC50 (eIF1A without CTT; [2]): 5.4 µM; RPS10 fluorescence ratio to control (RPS10; 1Ai conc. 0.5 uM): 1.045; RPS10 fluorescence ratio to control (RPS10; 1Ai conc. 1 uM): 1.349; RPS10 fluorescence ratio to control (RPS10; 1Ai conc. 2 uM): 1.319; RPS10 fluorescence ratio to control (RPS10; 1Ai conc. 4 uM): 1.348; RPS10 fluorescence ratio to control (RPS10; 1Ai conc. 8 uM): 0.4488; RPS10 fluorescence ratio to control (RPS10; 1Ai conc. 16 uM): 0.3698; RPS10 fluorescence ratio to control (RPS10; 1Ai conc. 32 uM): 0.4065; RPS10 fluorescence ratio to control (RPS10; 1Ai conc. 64 uM): 0.1627; RPS10 fluorescence ratio to control (RPS10; 1Ai conc. 256 uM): 0.3279; pIC50 (RPS10; read-out: IC50 (line under RPS10 binding data)): 5.13; pIC50 (RPS10; read-out: RPS10 IC50): 5.13; IC50 (RPS10; summary table, fluorescence binding assay, read-out: IC50 concentration (µM), RPS10): 7.4 µM; US/DS ratio, average [1]: 0.8188 |
| CN(C)CC1CCn2cc(c3ccccc32)C2=C(C(=O)NC2=O)c2cn(c3ccccc23)CCO1 (centres unmarked) [1Ai-5662] | 0.839 and 0.8682 and 1 | 1.068 | 0.9026 and 0.9044 and 1.056 | 0.8689 and 0.9922 and 1.016 | 0.8614 and 0.9638 and 0.988 | 0.8277 and 0.845 and 0.9679 | 0.6816 and 0.8424 and 0.9197 | 0.5918 and 0.6641 and 0.7952 | 0.4307 and 0.4574 and 0.6064 | 0.2846 and 0.3101 and 0.4458 | 0.8742 and 0.9398 | 0.8798 and 0.8003 | 0.8074 and 0.8109 | 0.7089 and 0.7163 | 0.4859 and 0.6001 | 0.4269 and 0.4563 | 0.2954 and 0.3164 | 0.164 and 0.1518 | 0.1171 and 0.08567 | 0.8917 | fluorescence ratio, eIF1A Δ NTT (eIF1A without NTT; [3]): 0.9101 and 0.8837; pIC50 (eIF1A without NTT): 4.42; IC50 (eIF1A without NTT): 37.9 µM; fluorescence ratio, eIF1A Δ CTT (eIF1A without CTT; [3]): 0.8855 and 0.8821; pIC50 (eIF1A without CTT): 4.91; IC50 (eIF1A without CTT; [2]): 12.4 µM; RPS10 fluorescence ratio to control (RPS10; 1Ai conc. 0.5 uM): 1.048; RPS10 fluorescence ratio to control (RPS10; 1Ai conc. 1 uM): 0.937; RPS10 fluorescence ratio to control (RPS10; 1Ai conc. 2 uM): 0.8646; RPS10 fluorescence ratio to control (RPS10; 1Ai conc. 4 uM): 0.7525; RPS10 fluorescence ratio to control (RPS10; 1Ai conc. 8 uM): 0.6979; RPS10 fluorescence ratio to control (RPS10; 1Ai conc. 16 uM): 0.6531; RPS10 fluorescence ratio to control (RPS10; 1Ai conc. 32 uM): 0.6137; RPS10 fluorescence ratio to control (RPS10; 1Ai conc. 64 uM): 0.4569; RPS10 fluorescence ratio to control (RPS10; 1Ai conc. 256 uM): 0.295; RPS10 IC50 (RPS10): No binding; IC50 concentration (µM), RPS10 (RPS10; [2]): No binding; US/DS ratio, average [1]: 3.065 |
